Measurements taken from US12509449B2, “Anthelmintic compounds comprising a quinoline structure” (Intervet Inc., priority 2019, dated 2025).

Assays:
[1] = test system: Haemonchus contortus; assay: In vitro assay Haemonchus contortus exsheathed L3 larvae motility; type: cell-based; settings: 168 h, incubation 7 days, automated microscopy, read-out: ED50 against Haemonchus contortus (motility reduced by 50%)
Procedure: Solutions of compounds with declining concentrations in DMSO were prepared, diluted with nutrient medium and distributed to 96 well microtiterplates. […]3 larvae of Haemonchus contortus were incubated for 20 min at 37° C. in a water bath, separated by centrifugation and added to the wells with 300 Larvae/well. After incubation for 7 days motility was assessed by automated microscopy. Ivermectin was used as positive control, DMSO as negative control and ED50 values were calculated which represent the concentration for an individual compound that reduces motility by 50% with respect to the […].

[2] = target: T1, human Maxi K channel (BK channel), KCNMA1 (KCa1.1) and beta1 (KCNMB1) subunits (Homo sapiens, UniProt Q12791); assay: Agonistic activity at the human Maxi K channel (BK channel), membrane potential (FLIPR) in transfected CHO K1 cells; type: cell-based; settings: membrane potential dye, 70 mM KCl
T1 construct: expressed in transfected cells; host or cells: CHO K1
Text: A CHO K1 cell line was stably transfected with the KCNMA1 (KCa1.1, U11058) and beta1 (KCNMB1) subunits of the human Maxi K channel (Ponte et al, Molecular Pharmacology 2012, 81(4), 567-577).
The complete measurement takes 150 s.

[3] = target: Caenorhabditis elegans slo-1a (Caenorhabditis elegans, UniProt Q95V25); assay: Agonistic activity at C. elegans Slo-1a, membrane potential (FLIPR) in transfected CHO K1 cells; settings: EC50 agonistic activity at C. elegans Slo-1a, membrane potential dye, 70 mM KCl
[4] = test system: Ascaridia galli L3; assay: In vitro assay Ascaridia galli larval stage 3, minimum effective concentration; type: cell-based; settings: 20 larvae per well, microscopic examination, read-out: MEC (minimum effective concentration) against Ascaridia galli L3
Text: (§1) […] galli (intestinal roundworm of chicken), larval stage 3 (“L3”); and Oesophagostumum dentatum (nodular worm of swine), larval stages 3 and 4 (respectively “L3” and “L4”) where suspended in a nutrient medium and distributed to 96 well plates with 20 larvae per well. The wells were spiked DMSO solutions of the compounds with declining concentration.

[5] = test system: Oesophagostumum dentatum L3; assay: In vitro assay Oesophagostumum dentatum larval stage 3, minimum effective concentration; type: cell-based; settings: 20 larvae per well, microscopic examination; read-out: MEC (minimum effective concentration) against Oesophagostumum dentatum L3
Text: as §1

[6] = test system: Dirofilaria immitis L4; assay: In vitro assay Dirofilaria immitis L4 motility; type: cell-based; settings: 72 h, 10 larvae L4, incubation 3 days, read-out: EC50 Dirofilaria immitis L4, reduction in motility
Procedure: (§2) 10 larvae L4 of D. immitis were added to a microtiter plate containing a nutrient medium and the test compound in DMSO at varying concentrations. After incubation for 3 days, activity was evaluated as reduction in motility as compared to DMSO as negative control. Compounds were tested in duplicates. Based on the concentration response curves EC50 values were calculated.

[7] = test system: Haemonchus contortus; assay: In vivo efficacy against Haemonchus contortus in jirds; parameters: species or system Haemonchus contortus in jirds (Meriones unguiculatus); settings: necropsy three days after treatment
Procedure: Compounds according to this invention were tested in vivo using Haemonchus contortus in jirds (Meriones unguiculatus). The jirds were orally infected with approximately 1500 third-stage larvae of Haemonchus contortus. Ten days after infection, the jirds in the treatment groups were treated once either orally or subcutaneously with compounds at a dose of […]. For treatment, compounds were dissolved in a mixture of 10% Transcutol, 10% Cremophor EL and 80% physiological sodium chloride solution. Three days after treatment, the jirds were necropsied, and the larvae burden in the stomach was determined. The efficacy was defined as the reduction of the mean larvae count in the infected jirds of the treatment group in comparison to the infected jirds in an untreated control group (negative control).

[8] = test system: Oesophagostumum dentatum L4; assay: In vitro assay Oesophagostumum dentatum larval stage 4, minimum effective concentration; type: cell-based; settings: 20 larvae per well, microscopic examination; read-out: MEC (minimum effective concentration) against Oesophagostumum dentatum L4
Text: as §1

[9] = test system: Acanthocheilonema viteae L1; assay: In vitro assay Acanthocheilonema viteae L1 (microfilaria) motility; type: cell-based; settings: 72 h, incubation 3 days, read-out: EC50 Acanthocheilonema viteae L1, reduction in motility
Procedure: as §2, with “Approximately 500 A. viteae microfilaria” for “10 larvae L4 of D. immitis”

[10] = test system: Dirofilaria immitis L1; assay: In vitro assay Dirofilaria immitis L1 (microfilaria) motility; type: cell-based; settings: 72 h, incubation 3 days, read-out: EC50 Dirofilaria immitis L1, reduction in motility
Procedure: as §2, with “Approximately 500” for “10 larvae L4 of”, “immitis microfilaria” for “immitis”

T1 sequence (Q12791 1-1178 isoform Q12791-5): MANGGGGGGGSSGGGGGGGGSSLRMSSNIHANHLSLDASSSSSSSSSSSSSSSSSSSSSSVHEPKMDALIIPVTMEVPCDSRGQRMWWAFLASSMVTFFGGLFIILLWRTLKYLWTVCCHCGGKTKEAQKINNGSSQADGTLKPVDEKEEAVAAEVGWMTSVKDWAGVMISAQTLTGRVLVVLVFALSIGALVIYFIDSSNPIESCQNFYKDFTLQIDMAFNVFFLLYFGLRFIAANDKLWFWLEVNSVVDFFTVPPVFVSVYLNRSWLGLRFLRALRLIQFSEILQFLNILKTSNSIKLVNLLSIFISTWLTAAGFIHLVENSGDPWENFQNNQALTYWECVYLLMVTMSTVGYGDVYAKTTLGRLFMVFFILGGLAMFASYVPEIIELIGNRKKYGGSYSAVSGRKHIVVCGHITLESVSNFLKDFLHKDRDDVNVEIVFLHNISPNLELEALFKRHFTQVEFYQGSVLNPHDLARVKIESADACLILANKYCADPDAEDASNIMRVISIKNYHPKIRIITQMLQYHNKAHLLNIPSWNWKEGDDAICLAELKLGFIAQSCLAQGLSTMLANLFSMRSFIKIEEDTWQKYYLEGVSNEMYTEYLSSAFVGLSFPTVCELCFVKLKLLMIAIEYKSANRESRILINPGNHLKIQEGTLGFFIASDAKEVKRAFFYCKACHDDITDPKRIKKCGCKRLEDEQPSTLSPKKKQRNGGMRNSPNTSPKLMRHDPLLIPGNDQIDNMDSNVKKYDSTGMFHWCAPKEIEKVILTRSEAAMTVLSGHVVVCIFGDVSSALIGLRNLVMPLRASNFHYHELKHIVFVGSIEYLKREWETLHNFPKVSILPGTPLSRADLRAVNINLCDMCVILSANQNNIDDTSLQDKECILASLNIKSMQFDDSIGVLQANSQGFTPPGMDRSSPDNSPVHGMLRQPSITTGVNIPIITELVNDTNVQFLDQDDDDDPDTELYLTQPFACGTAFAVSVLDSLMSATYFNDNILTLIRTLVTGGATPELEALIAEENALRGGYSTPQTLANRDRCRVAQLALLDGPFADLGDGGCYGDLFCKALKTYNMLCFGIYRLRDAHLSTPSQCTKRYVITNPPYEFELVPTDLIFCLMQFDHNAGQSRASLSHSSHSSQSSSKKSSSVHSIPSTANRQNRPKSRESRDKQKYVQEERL
T1 sequence (Q16558 whole entry partner): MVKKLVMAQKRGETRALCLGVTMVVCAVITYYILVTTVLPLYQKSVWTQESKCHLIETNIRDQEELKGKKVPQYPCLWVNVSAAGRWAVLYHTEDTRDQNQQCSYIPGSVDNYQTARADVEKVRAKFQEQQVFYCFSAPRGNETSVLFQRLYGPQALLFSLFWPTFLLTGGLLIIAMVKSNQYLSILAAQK
Chain of Caenorhabditis elegans slo-1a (Q95V25 whole entry): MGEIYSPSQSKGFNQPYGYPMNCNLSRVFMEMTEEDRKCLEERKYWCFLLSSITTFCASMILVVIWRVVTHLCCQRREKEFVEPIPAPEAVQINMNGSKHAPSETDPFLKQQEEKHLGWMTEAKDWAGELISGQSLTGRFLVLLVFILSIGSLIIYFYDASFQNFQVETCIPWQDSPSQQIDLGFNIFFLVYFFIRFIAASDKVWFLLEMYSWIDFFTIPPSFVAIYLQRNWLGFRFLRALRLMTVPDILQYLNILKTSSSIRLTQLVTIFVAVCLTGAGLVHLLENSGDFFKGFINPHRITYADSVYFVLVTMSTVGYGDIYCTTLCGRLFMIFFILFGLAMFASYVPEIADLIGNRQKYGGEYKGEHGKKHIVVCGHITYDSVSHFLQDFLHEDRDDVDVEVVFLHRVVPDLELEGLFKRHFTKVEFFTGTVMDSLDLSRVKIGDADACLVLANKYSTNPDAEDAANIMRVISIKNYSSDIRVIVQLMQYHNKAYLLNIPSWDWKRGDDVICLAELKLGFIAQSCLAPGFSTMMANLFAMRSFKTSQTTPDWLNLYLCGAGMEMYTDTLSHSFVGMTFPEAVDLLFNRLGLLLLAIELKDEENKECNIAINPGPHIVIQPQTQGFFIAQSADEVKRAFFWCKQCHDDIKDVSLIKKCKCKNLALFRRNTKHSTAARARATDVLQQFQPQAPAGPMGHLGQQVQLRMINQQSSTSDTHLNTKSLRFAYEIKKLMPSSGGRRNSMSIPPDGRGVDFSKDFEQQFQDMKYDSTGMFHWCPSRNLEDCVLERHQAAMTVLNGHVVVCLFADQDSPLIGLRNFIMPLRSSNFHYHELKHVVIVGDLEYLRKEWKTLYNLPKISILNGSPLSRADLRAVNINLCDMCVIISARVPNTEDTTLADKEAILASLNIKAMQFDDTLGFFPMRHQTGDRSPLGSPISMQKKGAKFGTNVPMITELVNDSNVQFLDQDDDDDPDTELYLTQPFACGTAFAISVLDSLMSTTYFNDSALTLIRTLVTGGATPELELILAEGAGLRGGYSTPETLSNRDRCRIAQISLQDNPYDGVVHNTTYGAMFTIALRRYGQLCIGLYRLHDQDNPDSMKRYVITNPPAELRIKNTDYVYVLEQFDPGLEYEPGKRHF

SMILES	EC50 [2] [µM]	EC50 [3] [µM]	minimal effective concentration [4] [µM]	minimal effective concentration [5] [µM]	minimal effective concentration [8] [µM]	also measured
CN(C)c1c(NC(=O)Cc2ccccc2)cnc2c(-c3cc(Cl)cc(Cl)c3)cccc12 [Compound 3]	> 30	< 10	≤ 50	≤ 50		EC50 [6]: < 1 µM
O=C(Nc1cnc2c(-c3cccc(Cl)c3Cl)c(F)ccc2c1N1CCOCC1)c1cccc2ccccc12 [Compound 151]						reduction of the Haemonchus contortus count ([7]; administered orally once at 10 mg/kg bw): at least 80%; reduction of the Haemonchus contortus count ([7]; administered subcutaneously once at 10 mg/kg bw): at least 80%
CN(C)c1c(NC(=O)Cc2ccccc2)cnc2c(-c3cccc(Cl)c3Cl)cccc12 [Compound 1]	> 30	< 10	≤ 50	≤ 50		
O=C(Nc1cnc2c(-c3cc(Cl)cc(Cl)c3)cccc2c1O)C1CCCc2ccccc21 (centres unmarked) [Compound 63]	> 30					EC50 [10]: < 10 µM
CN(C)c1c(NC(=O)c2cccc3ccccc23)cnc2c(-c3cc(Cl)cc(Cl)c3)c(F)ccc12 [Compound 145]	> 30	< 1				EC50 [1]: < 50 µM
CN(C(=O)C1CCOc2ccccc21)c1cnc2c(-c3cccc(Cl)c3Cl)cccc2c1N1CCOCC1 (centres unmarked) [Compound 158]	> 30			≤ 50	≤ 50	
COc1cccc(C(C)C(=O)Nc2cnc3c(-c4cccc(Cl)c4Cl)cccc3c2N(C)C)c1 (centres unmarked) [Compound 29]	> 30	< 10	≤ 50		≤ 50	EC50 [10]: < 10 µM
CC(C(=O)Nc1cnc2c(-c3cccc(Cl)c3Cl)cccc2c1N(C)C)c1cccc(Cl)c1 (centres unmarked) [Compound 28]	> 30		≤ 50		≤ 50	EC50 [10]: < 10 µM
O=C(Nc1cnc2c(-c3cccc(Cl)c3Cl)cccc2c1NCCO)C1CCOc2ccccc21 (centres unmarked) [Compound 90]	> 30	< 10	≤ 50	≤ 50		
COc1c(NC(=O)C(C)c2ccccc2)cnc2c(-c3cccc(Cl)c3Cl)cccc12 (centres unmarked) [Compound 11]	> 30					EC50 [10]: < 10 µM
CC(C)Oc1c(NC(=O)C2CCOc3ccccc32)cnc2c(-c3cc(Cl)cc(Cl)c3)c(F)ccc12 (centres unmarked) [Compound 127]	> 30		≤ 50	≤ 50		EC50 [9]: < 10 µM
CN(C)c1c(NC(=O)c2cccc3ccccc23)cnc2c(-c3cccc(Cl)c3Cl)cccc12 [Compound 31]	> 30	< 1				EC50 [1]: < 50 µM
Cc1c(NC(=O)C2CCCc3ccccc32)cnc2c(-c3cc(Cl)cc(Cl)c3)cccc12 (centres unmarked) [Compound 192]	> 30	< 10			≤ 50	
CN(CCO)c1c(NC(=O)C2CCOc3ccccc32)cnc2c(-c3cccc(Cl)c3Cl)cccc12 (centres unmarked) [Compound 92]	> 30	< 10			≤ 50	
O=C(Nc1cnc2c(-c3cc(Cl)cc(Cl)c3)c(F)ccc2c1N1CCOCC1)C1CCCc2ccccc21 (centres unmarked) [Compound 116]	> 30	< 1	≤ 50			EC50 [1]: < 50 µM
CC(C(=O)Nc1cnc2c(-c3cccc(Cl)c3Cl)cccc2c1N(C)C)c1ccccc1 (centres unmarked) [Compound 24]	> 30	< 10	≤ 50	≤ 50		EC50 [1]: < 50 µM
CCN(C(=O)C1CCOc2ccccc21)c1cnc2c(-c3cc(Cl)cc(Cl)c3)cccc2c1N1CCOCC1 (centres unmarked) [Compound 163]	> 30				≤ 50	EC50 [9]: < 10 µM
CCN(C)c1c(NC(=O)C2CCCc3ccccc32)cnc2c(-c3cccc(Cl)c3Cl)cccc12 (centres unmarked) [Compound 98]	> 30					EC50 [9]: < 10 µM
CCOc1c(NC(=O)C2CCc3ccccc32)cnc2c(-c3cc(Cl)cc(Cl)c3)cccc12 (centres unmarked) [Compound 79]	> 30	< 10	≤ 50	≤ 50		EC50 [1]: < 50 µM
CCNc1c(NC(=O)C2CCOc3ccccc32)cnc2c(-c3cccc(Cl)c3Cl)cccc12 (centres unmarked) [Compound 86]	> 30		≤ 50			EC50 [1]: < 50 µM
CCN(C(=O)C1CCOc2ccccc21)c1cnc2c(-c3cc(Cl)cc(Cl)c3)cccc2c1N(C)C (centres unmarked) [Compound 162]	> 30		≤ 50	≤ 50		EC50 [9]: < 10 µM
CN(C)c1cccc(CC(=O)Nc2cnc3c(-c4cccc(Cl)c4Cl)cccc3c2N(C)C)c1 [Compound 49]	> 30	< 10			≤ 50	

Continued, in another order:

EC50 [2] [µM]	EC50 [3] [µM]	SMILES	minimal effective concentration [4] [µM]	minimal effective concentration [5] [µM]	minimal effective concentration [8] [µM]	also measured
> 30	< 1	CN(C)c1c(NC(=O)C2CCOc3ccccc32)cnc2c(-c3cccc(Cl)c3F)cccc12 (centres unmarked) [Compound 42]				EC50 [1]: < 50 µM
10 to 30	< 1	O=C(Nc1cnc2c(-c3cccc(Cl)c3Cl)cccc2c1N1CCC(O)C1)C1CCOc2ccccc21 (centres unmarked) [Compound 37]	≤ 50		≤ 50	
> 30		O=C(Nc1cnc2c(-c3cccc(Cl)c3Cl)cccc2c1N1CCCC1)C1CCc2ccccc21 (centres unmarked) [Compound 18]	≤ 50		≤ 50	
> 30	< 1	C=C(C)c1c(NC(=O)C2CCc3ccccc32)cnc2c(-c3cccc(Cl)c3Cl)cccc12 (centres unmarked) [Compound 201]	≤ 50	≤ 50		
10 to 30	< 1	O=C(Nc1cnc2c(-c3cc(Cl)cc(Cl)c3)cccc2c1N1CCOCC1)C1CCCc2ccccc21 (centres unmarked) [Compound 8]				EC50 [1]: < 50 µM
10 to 30	< 1	O=C(Nc1cnc2c(-c3cccc(Cl)c3Cl)cccc2c1N1CCC(O)C1)C1CCc2ccccc21 (centres unmarked) [Compound 45]	≤ 50		≤ 50	
> 30		CC(C)Oc1c(NC(=O)c2cccc3ccccc23)cnc2c(-c3cc(Cl)cc(Cl)c3)c(F)ccc12 [Compound 147]		≤ 50		EC50 [9]: < 10 µM
> 30		CCN(C(=O)C1CCOc2ccccc21)c1cnc2c(-c3cccc(Cl)c3Cl)cccc2c1N1CCOCC1 (centres unmarked) [Compound 159]	≤ 50			EC50 [9]: < 10 µM
> 30	< 1	CN(C)c1c(NC(=O)[C@H]2CCCc3ccccc32)cnc2c(-c3cc(Cl)cc(Cl)c3)cccc12 [Compound 156]				EC50 [1]: < 50 µM
> 30	< 1	CCOc1c(NC(=O)C2CCCc3ccccc32)cnc2c(-c3cc(Cl)cc(Cl)c3)cccc12 (centres unmarked) [Compound 75]	≤ 50	≤ 50		
